Experimental data taken from US20190241864A1, “Composition Comprising Non-Germinant and Bacterial Spores” (NOVOZYMES BIOAG A/S, priority 2016, published 2019).

What was measured:
[1] = system: Bacillus megaterium strain SB3112 spores; assay: Spore germination by DPA release after L-asparagine treatment; assay type: cell-based; details: for Gmax: mean of 3
[2] = system: spores from Bacillus megaterium strain SB3112; assay: Germinant testing of heat-activated spores, decrease in relative OD580; assay type: cell-based; details: Example 2 studies, 3 mM
[3] = system: spores from Bacillus pumilus strain SB3189; assay: as above; assay type: cell-based; details: 3 mM
[4] = system: spores from Bacillus amyloliquefaciens strain SB3615; assay: as above; details: substance alone, 3 mM; 37° C., 70 minutes
[5] = system: Bacillus pumilus strain SB3189 spores; assay: Spore germination by dipicolinic acid (DPA) release (Tb-DPA fluorescence) after L-valine treatment; assay type: cell-based; details: for Gmax: then 10 mM AAGFK, mean of 3
Protocol: This was performed three consecutive times.
Germination of spores in these studies was determined by measuring dipicolinic acid (DPA). DPA is about 10% of the mass of endospores, all of which is generally released when germination is triggered. Boiling spores generally releases all of the DPA. DPA release was detected using terbium chloride (TbCl3), as described below.
To perform the germination assays, 30 μl of spores were added to wells of a 96-well flat-bottom microtiter plate. Subsequently, 35 μl of a 250 μM TbCl3 stock was added. At time 0, 85 μl of a 10 mM L-alanine+10 mM AGFK (10 mM AGFK is 10 mM each of L-asparagine, D-glucose, D-fructose, and KCl) (10 mM AAGFK) was added. […] Tb-DPA is excited at 270 nm and emits at 545 nm. All experimental samples were tested in triplicate. Baseline controls for each sample were generated by omitting L-alanine and these were performed in duplicate. All sample wells were measured immediately after […] was added (time 0) and then over time. For each time point, the data were normalized to values for the spores that had been boiled for two hours to force 100% release of DPA from the spores.

Question: For `NC(=O)C[C@H](N)C(=O)O` [L-asparagine], which “Gmax compared to spores not pretreated with L-asparagine” value (“Gmax compared to spores not pretreated” below) ([1]; 4° C., native and heat-activated spores, all tested concentrations) is on record?
Answer: Its value is “increased Gmax”.

Question: What about the “Gmax compared to spores not pretreated” value ([1]; 22° C., 3.0 mM, both native and heat-activated spores) of the same compound?
Answer: The value was “increased Gmax”.

Question: What about the “Gmax compared to spores not pretreated” value ([1]; 22° C., 10 mM, native spores) of the same compound?
Answer: The value was “also increased Gmax”.

Question: What about the Gmax ([1]; heat activated spores, 0.5 mM L-asparagine overnight at 4° C.) of the same compound?
Answer: Its Gmax is 106%.

Question: What about the Gmax ([1]; heat activated spores, 0.5 mM L-asparagine overnight at 22° C.) of the same compound?
Answer: The Gmax was 81%.

Question: And the Gmax ([1]; heat activated spores, 3.0 mM L-asparagine overnight at 4° C.)?
Answer: Its Gmax is 109%.

Question: What about the Gmax ([1]; heat activated spores, 3.0 mM L-asparagine overnight at 22° C.) of the same compound?
Answer: Its Gmax is 102%.

Question: And the Gmax ([1]; heat activated spores, 10.0 mM L-asparagine overnight at 4° C.)?
Answer: The Gmax was 114%.

Question: And the Gmax ([1]; heat activated spores, 10.0 mM L-asparagine overnight at 22° C.)?
Answer: Its Gmax is 79%.

Question: What about the Gmax ([1]; native spores, 0.5 mM L-asparagine overnight at 4° C.) of the same compound?
Answer: Its Gmax is 29%.

Question: And the Gmax ([1]; native spores, 0.5 mM L-asparagine overnight at 22° C.)?
Answer: Its Gmax is 56%.

Question: What about the Gmax ([1]; native spores, 3.0 mM L-asparagine overnight at 4° C.) of the same compound?
Answer: Its Gmax is 28%.

Question: What about the Gmax ([1]; native spores, 3.0 mM L-asparagine overnight at 22° C.) of the same compound?
Answer: Its Gmax is 100%.

Question: What about the Gmax ([1]; native spores, 10.0 mM L-asparagine overnight at 4° C.) of the same compound?
Answer: The Gmax was 29%.

Question: And the Gmax ([1]; native spores, 10.0 mM L-asparagine overnight at 22° C.)?
Answer: Its Gmax is 81%.

Question: And the germinant behavior [2]?
Answer: The germinant behavior was “not shown to have germinant behavior”.

Question: `OC[C@H]1O[C@@](CO)(O[C@H]2O[C@H](CO)[C@@H](O)[C@H](O)[C@H]2O)[C@@H](O)[C@@H]1O` [sucrose] was tested. Which “germination of spores by substance alone” value [3] did it give?
Answer: Its value is “None of L-alanine, L-cysteine, D-fructose, or sucrose alone, at a concentration of 3 mM, caused germination”.

Question: `C[C@H](N)C(=O)O` [L-alanine] was tested. Which germination of spores [4] did it give?
Answer: Its germination of spores is “could cause germination”.

Question: What about the “germination of spores by substance alone” value [3] of the same compound?
Answer: The value was “None of L-alanine, L-cysteine, D-fructose, or sucrose alone, at a concentration of 3 mM, caused germination”.

Question: Which Gmax ([5]; 0.5 mM L-valine 24 hours at 4° C.) does the source give for `CC(C)[C@H](N)C(=O)O` [L-valine] here?
Answer: The Gmax was 74%.

Question: And the Gmax ([5]; 0.5 mM L-valine 24 hours at 22° C.)?
Answer: The Gmax was 6%.

Question: And the “change of Gmax” value ([5]; 0.5 mM L-valine at 22° C.)?
Answer: The value was “the Gmax decreased”.

Question: What about the Gmax ([5]; 3.0 mM L-valine 24 hours at 4° C.) of the same compound?
Answer: The Gmax was 70%.

Question: What about the Gmax ([5]; 3.0 mM L-valine 24 hours at 22° C.) of the same compound?
Answer: The Gmax was 43%.

Question: And the “increase in Gmax compared to the control that did not contain L-valine” value ([5]; 3.0 mM L-valine at 22° C.)?
Answer: Its value is roughly 3 fold.

Question: What about the Gmax ([5]; 10.0 mM L-valine 24 hours at 4° C.) of the same compound?
Answer: Its Gmax is 76%.

Question: What about the Gmax ([5]; 10.0 mM L-valine 24 hours at 22° C.) of the same compound?
Answer: The Gmax was 77%.

Question: And the “increase in Gmax compared to the control that did not contain L-valine” value ([5]; 10.0 mM L-valine at 22° C.)?
Answer: Its value is roughly 5 fold.

Question: What about the “change of Tlag” value ([5]; L-valine 0.5-10.0 mM, 4° C. and 22° C.) of the same compound?
Answer: Its value is “Tlag was not changed”.

Question: And the “effects on germination parameters” value ([5]; L-valine incubated with spores at 4° C.)?
Answer: Its value is “small effects on germination parameters”.

Question: And the germinant activity ([3]; tested in combination with individual sugars, and in combination with salts)?
Answer: The germinant activity was “did not show germinant activity”.

Question: `N[C@@H](CS)C(=O)O` [L-cysteine] was tested. Which “germination of spores by substance alone” value [3] did it give?
Answer: The value was “None of L-alanine, L-cysteine, D-fructose, or sucrose alone, at a concentration of 3 mM, caused germination”.

Question: `O=C(CO)[C@@H](O)[C@H](O)[C@H](O)CO` [D-fructose] was tested. Which “germination of spores by substance alone” value [3] did it give?
Answer: The value was “None of L-alanine, L-cysteine, D-fructose, or sucrose alone, at a concentration of 3 mM, caused germination”.
